# Measurements taken from patent US10300074B2, “Use of inhibitor of apoptosis protein (IAP) antagonists in HIV therapy” (Sanford-Burnham Medical Research Institute, priority 2014, dated 2019).
# How the values were obtained:
# [1] = test system: Latently infected Jurkat JLat 10.6 cells; conditions: HDAC inhibitor in combination with Compound 35, 36 hours, normalized against background of HDAC inhibitor alone
# XIAP BIR3 = XIAP BIR3 (Homo sapiens (Human), UniProt P98170); assay: XIAP BIR3 Ki; type: binding
# XIAP BIR1/2 = XIAP BIR1/2 (Homo sapiens (Human), UniProt P98170); assay: XIAP BIR1/2 Ki; type: binding
# ML-IAP = ML-IAP (Homo sapiens (Human), UniProt Q96CA5); assay: ML-IAP Ki; type: binding
# Sequence of ML-IAP (Q96CA5 whole entry): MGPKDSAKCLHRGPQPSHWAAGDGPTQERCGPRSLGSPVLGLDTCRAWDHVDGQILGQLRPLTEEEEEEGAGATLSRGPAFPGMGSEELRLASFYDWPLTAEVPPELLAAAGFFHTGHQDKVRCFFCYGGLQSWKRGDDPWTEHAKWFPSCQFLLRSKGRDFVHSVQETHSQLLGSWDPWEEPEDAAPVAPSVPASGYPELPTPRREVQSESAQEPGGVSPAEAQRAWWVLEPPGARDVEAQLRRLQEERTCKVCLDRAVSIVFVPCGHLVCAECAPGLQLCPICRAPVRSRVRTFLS
# Sequence of XIAP BIR1/2 (P98170 1-240): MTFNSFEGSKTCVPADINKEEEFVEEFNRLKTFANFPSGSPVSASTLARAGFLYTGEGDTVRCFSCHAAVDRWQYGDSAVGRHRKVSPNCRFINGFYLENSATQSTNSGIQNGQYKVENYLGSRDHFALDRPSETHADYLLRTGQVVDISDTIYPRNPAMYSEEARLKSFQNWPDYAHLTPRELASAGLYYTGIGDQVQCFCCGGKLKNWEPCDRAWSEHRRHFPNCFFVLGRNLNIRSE
# Sequence of XIAP BIR3 (P98170 241-356): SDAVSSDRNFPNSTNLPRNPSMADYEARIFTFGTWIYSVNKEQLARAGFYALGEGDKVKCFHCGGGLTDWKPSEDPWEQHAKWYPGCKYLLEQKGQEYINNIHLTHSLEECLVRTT
Ki (XIAP BIR1/2; Table B-1),Compound,Group: increase of GFP+ cells [1],Ki (XIAP BIR3; Table B-1),other results
–,"CCCC(=O)OCc1ccc(OC(=O)/C=C(C)/C=C/C=C(C)/C=C/C2=C(C)CCCC2(C)C)cc1 [ATRA-BA Hybrid, Retinoic acid, 4-[(1-oxobutoxy)methyl]phenyl ester]",A (A 0-25%),–,–
–,CCC(=O)CCCCC[C@@H]1NC(=O)[C@H]2CCCCN2C(=O)[C@H]([C@@H](C)CC)NC(=O)[C@H](Cc2cn(OC)c3ccccc23)NC1=O [Apicidin],C (C 50-75%),–,–
–,"Nc1ccccc1NC(=O)CCCCCCC(=O)Nc1ccccc1 [BML-210, Octanediamide, N1-(2-aminophenyl)-N8-phenyl-]",A (A 0-25%),–,–
–,"CC(C)(C)OC(=O)Nc1ccc(-c2cc(C(=O)NCCCCCCC(=O)NO)no2)cc1 [BML-281, Carbamic acid, N-[4-[3-[[[7-(hydroxyamino)-7-oxoheptyl]amino]carbonyl]-5-isoxazolyl]phenyl]-, 1,1-dimethylethyl ester]",B (B 25-50%),–,–
–,"CC(=O)Nc1ccc(C(=O)Nc2ccccc2N)cc1 [CI-994, Benzamide, 4-(acetylamino)-N-(2-aminophenyl)-]",A (A 0-25%),–,–
–,CN[C@@H](C)C(=O)N[C@H]1CO[C@H]2CCC(C(=O)Nc3ccc(OC)cc3)N2C1=O (some centres unmarked) [Compound 3],–,25 to 50 µM,–
–,CN[C@@H](C)C(=O)N[C@H]1CO[C@H]2CCC(C(=O)NCc3ccccc3)N2C1=O (some centres unmarked) [Compound 6],–,25 to 50 µM,–
–,CN[C@@H](C)C(=O)N[C@H]1CO[C@H]2CCC(C(=O)Nc3ccc(OC)cc3)N2C1=O (some centres unmarked) [Compound 7],–,25 to 50 µM,–
> 50 µM,CN[C@@H](C)C(=O)N[C@H]1CO[C@H]2CCC(C(=O)NC3CCCc4ccccc43)N2C1=O (some centres unmarked) [Compound 9],–,≤ 25 µM,–
> 50 µM,CN[C@@H](C)C(=O)N[C@@H]1C(=O)N2C(C(=O)NC3CCCc4ccccc43)CC[C@@H]2O[C@@H]1C (some centres unmarked) [Compound 10],–,≤ 25 µM,Ki (ML-IAP; Table B-1): ≤ 25 µM
≤ 25 µM,CN[C@@H](C)C(=O)N[C@H]1CCO[C@H]2CCC(C(=O)Nc3cccc4ccccc34)N2C1=O (some centres unmarked) [Compound 13],–,≤ 25 µM,–
> 50 µM,CN[C@@H](C)C(=O)N[C@H]1CCO[C@H]2CCC(C(=O)NC(c3ccccc3)c3ccccc3)N2C1=O (some centres unmarked) [Compound 14],–,≤ 25 µM,Ki (ML-IAP; Table B-1): ≤ 25 µM
≤ 25 µM,CN[C@@H](C)C(=O)N[C@H]1CCCNC2CCC(C(=O)Nc3cccc4ccccc34)N2C1=O (some centres unmarked) [Compound 17],–,≤ 25 µM,–
–,CN[C@@H](C)C(=O)N[C@H]1CCO[C@H]2c3ccccc3C(C(=O)N[C@@H]3CCCc4ccccc43)N2C1=O (some centres unmarked) [Compound 17a],–,–,Ki (XIAP BIR3; Table 2-2): ≤ 25 µM; Ki (ML-IAP; Table 2-2): ≤ 25 µM; Ki (XIAP BIR1/2; Table 2-2): > 50 µM
–,CN[C@@H](C)C(=O)N[C@H]1CCO[C@H]2CC(C)(C)C(C(=O)N[C@@H]3CCCc4ccccc43)N2C1=O (some centres unmarked) [Compound 17b],–,–,Ki (XIAP BIR3; Table 2-2): ≤ 25 µM; Ki (ML-IAP; Table 2-2): ≤ 25 µM; Ki (XIAP BIR1/2; Table 2-2): ≤ 25 µM
–,CN[C@@H](C)C(=O)N[C@H]1CCS[C@H]2CC(C)(C)C(C(=O)N[C@@H]3CCCc4ccccc43)N2C1=O (some centres unmarked) [Compound 17c],–,–,Ki (XIAP BIR3; Table 2-2): ≤ 25 µM; Ki (ML-IAP; Table 2-2): ≤ 25 µM
–,CC(=O)N(C)[C@@H](C)C(=O)N[C@H]1CCCN(C(C)=O)[C@H]2CCC(C(=O)Nc3cccc4ccccc34)N2C1=O (some centres unmarked) [Compound 19],–,25 to 50 µM,–
> 50 µM,CN[C@@H](C)C(=O)N[C@H]1CCCN(C(C)=O)C2CCC(C(=O)NC3CCCc4ccccc43)N2C1=O (some centres unmarked) [Compound 20],–,≤ 25 µM,–
> 50 µM,CN[C@@H](C)C(=O)N[C@H]1CCO[C@H]2CCC(C(=O)n3ccc4ccccc43)N2C1=O (some centres unmarked) [Compound 22],–,25 to 50 µM,–
–,CN[C@@H](C)C(=O)N[C@H]1CCO[C@H]2CCC(C(=O)n3ccc4ccccc43)N2C1=O (some centres unmarked) [Compound 23],–,25 to 50 µM,–
≤ 25 µM,CN[C@@H](C)C(=O)N[C@H]1CCO[C@H]2CC[C@@H](C(=O)Nc3cccc4ccccc34)N2C1=O [Compound 25],–,≤ 25 µM,–

Ki (XIAP BIR1/2; Table B-1),Compound,Group: increase of GFP+ cells [1],Ki (XIAP BIR3; Table B-1),other results
> 50 µM,CN[C@@H](C)C(=O)N[C@H]1Cc2c([nH]c3ccccc23)[C@H]2CCC(C(=O)N[C@@H]3CCCc4ccccc43)N2C1=O (some centres unmarked) [Compound 30],–,25 to 50 µM,–
≤ 25 µM,CN[C@@H](C)C(=O)N[C@H]1Cc2c([nH]c3ccccc23)[C@H]2CCC(C(=O)N[C@@H]3CCCc4ccccc43)N2C1=O (some centres unmarked) [Compound 31],–,≤ 25 µM,–
≤ 25 µM,CN[C@@H](C)C(=O)N[C@H]1CCO[C@H]2CC(C)(C)C(C(=O)Nc3ccccc3SSc3ccccc3NC(=O)C3N4C(=O)[C@@H](NC(=O)[C@H](C)NC)CCO[C@H]4CC3(C)C)N2C1=O (some centres unmarked) [Compound 40],–,≤ 25 µM,–
≤ 25 µM,CN[C@@H](C)C(=O)N[C@H]1CCS[C@H]2CCCC(C(=O)N[C@@H]3CCCc4ccccc43)N2C1=O (some centres unmarked) [Compound 41],–,≤ 25 µM,–
≤ 25 µM,CN[C@@H](C)C(=O)N[C@H]1CCO[C@H]2CC3(CCCC3)C(C(=O)N[C@@H]3CCCc4ccccc43)N2C1=O (some centres unmarked) [Compound 43],–,≤ 25 µM,–
≤ 25 µM,CN[C@@H](C)C(=O)N[C@H]1Cc2ccc(O)cc2[C@H]2CC(C)(C)C(C(=O)N[C@@H]3CCCc4ccccc43)N2C1=O (some centres unmarked) [Compound 45],–,≤ 25 µM,–
–,"CN(C)c1ccc(C(=O)NCCCCCCC(=O)NO)cc1 [Compound M344, Benzamide, 4-(dimethylamino)-N-[7-(hydroxyamino)-7-oxoheptyl]-]",C (C 50-75%),–,–
–,Cc1cc(Cl)ccc1OCCCC(=O)NO [Droxinostat],B (B 25-50%),–,–
–,"O=C(CCCCCCSc1ccc2ccccc2c1)NO [HNHA, Heptanamide, N-hydroxy-7-(2-naphthalenylthio)-]",B (B 25-50%),–,–
–,"Cc1ccc(C(=O)c2cc(C=CC(=O)NO)n(C)c2)cc1 [MC-1293, 2-Propenamide, N-hydroxy-3-[1-methyl-4-(4-methylbenzoyl)-1H-pyrrol-2-yl]-]",B (B 25-50%),–,–
–,"CC(C)C(=O)SCCCCCCC(=O)Nc1nc(-c2ccccc2)cs1 [NCH-51, Propanethioic acid, 2-methyl-, S-[7-oxo-7-[(4-phenyl-2-thiazolyl)amino]heptyl] ester]",A (A 0-25%),–,–
–,"CC(CC1OCCN(Cc2nc(=O)[nH][nH]2)C1c1ccc(F)cc1)c1cc(C(F)(F)F)cc(C(F)(F)F)c1 (centres unmarked) [NKL 22, 3H-1,2,4-Triazol-3-one, 5-[[2-[2-[3,5-bis(trifluoromethyl)phenyl]propyl]-3-(4-fluorophenyl)-4-morpholinyl]methyl]-1,2-dihydro-]",A (A 0-25%),–,–
–,"O=Nc1ccc(O)c2ncccc12 [NSC-3852, 8-Quinolinol, 5-nitroso-]",B (B 25-50%),–,–
–,"O=C([O-])CCCc1ccccc1.[Na+] [Phenylbutyrate•Na, Phenylbutyrate⋅Na]",A (A 0-25%),–,–
–,O=C(CCCCCN1C(=O)c2cccc3cccc(c23)C1=O)NO [Scriptaid],C (C 50-75%),–,–
–,O=C(CCCCCCC(=O)NO)NO [Suberoyl bis-hydroxamic acid],B (B 25-50%),–,–
–,CC(/C=C/C(=O)NO)=C\[C@@H](C)C(=O)c1ccc(N(C)C)cc1 [Trichostatin A],C (C 50-75%),–,–
–,"CCCC(CCC)C(=O)O [Valproic acid, valproic acid]",A (A 0-25%),–,–
–,O=C(CCCCCCC(=O)Nc1ccc(F)cc1)NO [p-Fluoro-SAHA],A (A 0-25%),–,–
–,Oxamflatin,C (C 50-75%),–,–

Compound,Ki (XIAP BIR1/2; Table B-1),Group: increase of GFP+ cells [1],Ki (XIAP BIR3; Table B-1),other results
CN[C@@H](C)C(=O)N[C@H]1CO[C@H]2CCC(C(=O)Nc3ccc(OC)cc3)N2C1=O (some centres unmarked) [Compound 4],> 50 µM,–,25 to 50 µM,–
CN[C@@H](C)C(=O)N[C@H]1CO[C@H]2CCC(C(=O)NCc3ccccc3)N2C1=O (some centres unmarked) [Compound 5],> 50 µM,–,25 to 50 µM,–
CN[C@@H](C)C(=O)N[C@H]1CO[C@H]2CCC(C(=O)Nc3ccc(Cl)cc3)N2C1=O (some centres unmarked) [Compound 8],> 50 µM,–,25 to 50 µM,–
CN[C@@H](C)C(=O)N[C@@H]1C(=O)N2C(C(=O)Nc3cccc4ccccc34)CC[C@@H]2O[C@@H]1C (some centres unmarked) [Compound 11],> 50 µM,–,25 to 50 µM,–
CN[C@@H](C)C(=O)N[C@H]1CCO[C@H]2CCC(C(=O)N[C@@H]3CCCc4ccccc43)N2C1=O (some centres unmarked) [Compound 12],> 50 µM,–,≤ 25 µM,Ki (ML-IAP; Table B-1): ≤ 25 µM
CN[C@@H](C)C(=O)N[C@@H]1C(=O)N2C(C(=O)NC(c3ccccc3)c3ccccc3)CC[C@@H]2O[C@@H]1C (some centres unmarked) [Compound 15],> 50 µM,–,25 to 50 µM,–
CN[C@@H](C)C(=O)N[C@H]1CCCNC2CCC(C(=O)NC3CCCc4ccccc43)N2C1=O (some centres unmarked) [Compound 16],25 to 50 µM,–,≤ 25 µM,–
CC(=O)N(C)[C@@H](C)C(=O)N[C@H]1CCCN(C(C)=O)[C@H]2CCC(C(=O)Nc3cccc4ccccc34)N2C1=O (some centres unmarked) [Compound 18],> 50 µM,–,25 to 50 µM,–
CN[C@@H](C)C(=O)N[C@H]1CCN[C@H]2CCC(C(=O)N[C@@H]3CCCc4ccccc43)N2C1=O (some centres unmarked) [Compound 28],> 50 µM,–,25 to 50 µM,–
CN[C@@H](C)C(=O)N[C@H]1CCN[C@H]2CCC(C(=O)N[C@@H]3CCCc4ccccc43)N2C1=O (some centres unmarked) [Compound 29],> 50 µM,–,> 50 µM,–
CN[C@@H](C)C(=O)N[C@H]1CCS(=O)(=O)[C@H]2CC[C@@H](C(=O)N[C@@H]3CCCc4ccccc43)N2C1=O [Compound 37],> 50 µM,–,≤ 25 µM,–
CN[C@@H](C)C(=O)N[C@H]1CCS(=O)(=O)[C@H]2CC[C@H](C(=O)N[C@@H]3CCCc4ccccc43)N2C1=O [Compound 38],> 50 µM,–,25 to 50 µM,–
CN[C@@H](C)C(=O)N[C@H]1CCO[C@H]2CC[C@H](C(=O)N[C@@H]3CCOc4ccccc43)N2C1=O [Compound 39],> 50 µM,–,25 to 50 µM,–
